pIC50: −log10 of the molar value. Read-outs that look alike come from different tables or passages of the source.
How the values were obtained:
PERK = target: T1, PERK (Homo sapiens, UniProt Q9NZJ5); test: PERK biochemical LanthaScreen TR-FRET assay (GFP-eIF2a phosphorylation)
T1 sequence (Q9NZJ5 30-1116): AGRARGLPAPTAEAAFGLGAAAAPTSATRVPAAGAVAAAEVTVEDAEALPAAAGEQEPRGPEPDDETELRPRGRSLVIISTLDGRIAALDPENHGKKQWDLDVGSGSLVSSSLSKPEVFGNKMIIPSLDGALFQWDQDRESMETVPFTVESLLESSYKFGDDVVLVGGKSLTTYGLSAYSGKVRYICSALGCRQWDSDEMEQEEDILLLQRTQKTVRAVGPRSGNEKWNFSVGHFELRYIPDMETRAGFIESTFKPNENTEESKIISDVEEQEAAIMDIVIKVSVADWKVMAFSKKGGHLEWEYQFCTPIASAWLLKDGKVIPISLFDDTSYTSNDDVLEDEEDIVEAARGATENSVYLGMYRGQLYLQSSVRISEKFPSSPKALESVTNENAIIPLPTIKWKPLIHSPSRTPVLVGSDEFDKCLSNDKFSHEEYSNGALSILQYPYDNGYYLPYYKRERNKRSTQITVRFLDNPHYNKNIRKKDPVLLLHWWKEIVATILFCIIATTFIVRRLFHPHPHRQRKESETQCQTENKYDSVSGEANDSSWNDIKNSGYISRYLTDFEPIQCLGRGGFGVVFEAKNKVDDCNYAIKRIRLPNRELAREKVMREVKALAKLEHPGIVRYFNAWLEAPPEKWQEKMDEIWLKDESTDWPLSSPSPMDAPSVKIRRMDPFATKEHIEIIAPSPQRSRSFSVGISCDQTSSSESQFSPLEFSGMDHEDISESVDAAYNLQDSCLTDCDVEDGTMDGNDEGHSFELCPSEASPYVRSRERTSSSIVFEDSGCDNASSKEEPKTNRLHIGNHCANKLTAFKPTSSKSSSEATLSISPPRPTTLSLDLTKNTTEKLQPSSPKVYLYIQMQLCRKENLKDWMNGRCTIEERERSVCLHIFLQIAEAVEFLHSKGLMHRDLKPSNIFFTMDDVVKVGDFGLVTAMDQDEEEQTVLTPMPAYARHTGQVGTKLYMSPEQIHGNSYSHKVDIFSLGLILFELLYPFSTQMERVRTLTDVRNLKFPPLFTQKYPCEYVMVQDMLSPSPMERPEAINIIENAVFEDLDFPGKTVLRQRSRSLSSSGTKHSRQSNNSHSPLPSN
Procedure: Methods used to evaluate biochemical PERK activity are described and published elsewhere. In brief, biochemical PERK activity is evaluated using a LanthaScreenTM ([…]) TR-FRET assay to detect phosphorylation of a GFP-tagged eIF2a substrate (ThermoFisher). Excitation at […] of a terbium chelate donor fluorophore in an eIF2a antibody results in energy transfer to GFP acceptor fluorophore upon eIF2a phosphorylation by PERK. Reaction buffer was composed of 50 mM HEPES (pH 7.4), 10 mM MgCl2, 1 mM EGTA and 0.01% (v/v) BrijTM-35. Reactions were initiated by the addition of substrate and ATP, followed by incubation for 1 h at RT prior to addition of EDTA and the anti-peIF2a antibody. FRET was measured by an EnVision Plate Reader (PerkinElmer). Data were plotted as percent inhibition along a 10-point 3-fold dilution series of inhibitors. IC50 values were calculated using 4-parameter logistical fitting in XLFit.
(§1) The PERK activity of analog I was evaluated using cell-free biochemical assays. In these assays, PERK phosphorylation of eIF2a was assessed using a FRET-based labelled protein assay. Compounds were then evaluated for cellular activity by quantifying inhibition of eIF2a phosphorylation in HEK293 cells treated with the ER inducer tunicamycin [7].

p-eIF2α = test: Cellular PERK inhibition: p-eIF2a TR-FRET in tunicamycin-treated HEK293-EGFP-eIF2a cells; assay type: cell-based
Procedure: Methods used to evaluate in vitro cellular PERK inhibition are described and published elsewhere. In brief, stableHEK293 cells were created using lentiviral particles harboring a GFP-eIF2a expression vector. Transfectants were selected by puromycin and enriched using fluorescent cell sorting based on GFP expression. HEK293-EGFP-eIF2a cells were plated at 5000 cells/well in 384-well assay plates and incubated overnight. The following day, pyrrolopyrimidine analogs were added to wells using an Echo acoustic dispenser and incubated for 30 min. ER stress was induced by the addition of tunicamycin to the wells at […] for 2 h. Cells were lysed and peIF2a was evaluated using a TR-FRET system, as described above.
as §1

MOLM-13 (FLT3-ITD) = test: Cell viability assay, MOLM-13; assay type: cell-based; conditions: Homo sapiens
Kasumi-1 (FLT3wt) = test: Cell viability assay, Kasumi-1; assay type: cell-based; conditions: Homo sapiens
[1] = cell-free TR-FRET, GFP-eIF2a substrate, read-out: PERK IC50
[2] = Homo sapiens, HEK293 cells, tunicamycin-induced ER stress, read-out: p-eIF2α IC50
[3] = bound stated, read-out: biochemical potency
[4] = bound stated, read-out: cellular potency

| Structure (SMILES) | pIC50 (PERK; [1]) | pIC50 (p-eIF2α; [2]) | pIC50 (PERK; [3]) | pIC50 (p-eIF2α; [4]) | pIC50 (MOLM-13 (FLT3-ITD)) | pIC50 (Kasumi-1 (FLT3wt)) |
| --- | --- | --- | --- | --- | --- | --- |
| Cc1nc(N)c2c(-c3ccc(NC(=O)[C@H](O)c4cncc(F)c4)cc3C)cn(C)c2n1 [Compound 43] | 7.28 | 6.25 | – | – | – | – |
| Cc1nc(N)c2c(-c3ccc(NC(=O)[C@H](O)c4cncc(Cl)c4)cc3C)cn(C)c2n1 [Compound 44] | 7.77 | 6.89 | – | – | – | – |
| Cc1nc(N)c2c(-c3ccc(NC(=O)[C@H](O)c4cncc(C(F)(F)F)c4)cc3C)cn(C)c2n1 [Compound 45] | 7.72 | 6.78 | – | – | – | – |
| Cc1nc(N)c2c(-c3ccc(NC(=O)[C@H](O)c4cccc(F)c4)cc3F)cn(C)c2n1 [Compound 46] | 8.66 | 7.39 | – | – | – | – |
| Cc1nc(N)c2c(-c3ccc(NC(=O)[C@H](O)c4cccc(C(F)(F)F)c4)cc3F)cn(C)c2n1 [Compound 47, (R)-N-(4-(4-amino-2,7-dimethyl-7H-pyrrolo[2,3-d]pyrimidin-5-yl)-3-fluorophenyl)-2-hydroxy-2-(3-(trifluoromethyl)phenyl)acetamide] | 8.29 | 7.96 | > 8.30 | > 7.82 | – | – |
| Cc1cccc([C@@H](O)C(=O)Nc2ccc(-c3cn(C)c4nc(C)nc(N)c34)c(F)c2)c1 [Compound 49] | 8.96 | 7.77 | – | – | – | – |
| CCc1cccc([C@@H](O)C(=O)Nc2ccc(-c3cn(C)c4nc(C)nc(N)c34)c(F)c2)c1 [Compound 50] | 9.05 | 7.60 | – | – | – | – |
| Cc1nc(N)c2c(-c3ccc(NC(=O)[C@H](O)c4cc(F)cc(C(F)(F)F)c4)cc3F)cn(C)c2n1 [Compound 51] | 8.57 | 7.21 | – | – | – | – |
| Cc1cc(F)cc([C@@H](O)C(=O)Nc2ccc(-c3cn(C)c4nc(C)nc(N)c34)c(F)c2)c1 [Compound 52] | 8.96 | 7.96 | > 8.30 | > 7.82 | – | – |
| Cc1nc(N)c2c(-c3ccc(NC(=O)[C@H](O)c4cccc(F)c4)cc3Cl)cn(C)c2n1 [Compound 53] | 7.77 | 7.25 | – | – | – | – |
| Cc1nc(N)c2c(-c3ccc(NC(=O)[C@H](O)c4cccc(C(F)(F)F)c4)cc3Cl)cn(C)c2n1 [Compound 54] | 8.57 | 7.68 | – | – | – | – |
| Cc1nc(N)c2c(-c3ccc(NC(=O)[C@H](O)c4cccc(Cl)c4)cc3Cl)cn(C)c2n1 [Compound 55] | 8.80 | 7.77 | – | – | – | – |
| Cc1cccc([C@@H](O)C(=O)Nc2ccc(-c3cn(C)c4nc(C)nc(N)c34)c(Cl)c2)c1 [Compound 56] | 8.39 | 7.74 | – | – | – | – |
| CCc1cccc([C@@H](O)C(=O)Nc2ccc(-c3cn(C)c4nc(C)nc(N)c34)c(Cl)c2)c1 [Compound 57] | – | 7.85 | > 8.30 | > 7.82 | – | – |
| Cc1nc(N)c2c(-c3ccc(NC(=O)[C@H](O)c4cccc(F)c4)cc3C(F)(F)F)cn(C)c2n1 [Compound 58] | 8.07 | 6.69 | – | – | – | – |
| CCc1cc(NC(=O)[C@H](O)c2cccc(F)c2)ccc1-c1cn(C)c2nc(C)nc(N)c12 [Compound 59] | 8.40 | 7.39 | – | – | – | – |
| COc1cc(NC(=O)[C@H](O)c2cccc(F)c2)ccc1-c1cn(C)c2nc(C)nc(N)c12 [Compound 60] | 6.63 | 5.73 | – | – | – | – |
| Cc1nc(N)c2c(-c3ccc(NC(=O)[C@H](O)c4cccc(F)c4)cc3OC(F)(F)F)cn(C)c2n1 [Compound 61] | 7.64 | 6.36 | – | – | – | – |
| Cc1nc(N)c2c(-c3ccc(NC(=O)[C@H](O)c4cccc(F)c4)cc3)cn(C)c2n1 [Compound 62] | 8.70 | 6.90 | – | – | – | – |
| Cc1nc(N)c2c(-c3ccc(NC(=O)[C@H](O)c4cccc(C(F)(F)F)c4)cc3)cn(C)c2n1 [Compound 63] | 8.55 | 7.89 | – | – | – | – |

Now from value to molecule, other results behind:

| pIC50 (PERK; [1]) | pIC50 (p-eIF2α; [2]) | pIC50 (PERK; [3]) | pIC50 (p-eIF2α; [4]) | pIC50 (MOLM-13 (FLT3-ITD)) | Structure (SMILES) | pIC50 (Kasumi-1 (FLT3wt)) |
| --- | --- | --- | --- | --- | --- | --- |
| 8.82 | 7.85 | – | – | – | Cc1nc(N)c2c(-c3ccc(NC(=O)[C@H](O)c4cccc(Br)c4)cc3)cn(C)c2n1 [Compound 64] | – |
| 7.66 | 7.11 | – | – | – | Cc1nc(N)c2c(-c3c(C)cc(NC(=O)C(O)c4cccc(F)c4)cc3F)cn(C)c2n1 (stereo not drawn) [Compound 67] | – |
| 7.89 | 7.09 | – | – | – | Cc1nc(N)c2c(-c3c(C)cc(NC(=O)C(O)c4cccc(F)c4)cc3C)cn(C)c2n1 (stereo not drawn) [Compound 68] | – |
| 9.00 | 7.59 | – | – | – | Cc1nc(N)c2c(-c3ccc(NC(=O)[C@H](O)c4cccc(F)c4)c(F)c3)cn(C)c2n1 [Compound 69] | – |
| 9.00 | 7.47 | – | – | – | Cc1nc(N)c2c(-c3cc(F)c(NC(=O)C(O)c4cccc(F)c4)cc3F)cn(C)c2n1 (stereo not drawn) [Compound 71] | – |
| 7.77 | 6.98 | – | – | – | Cc1nc(N)c2c(-c3ccc(NC(=O)[C@H](O)c4cccc(F)c4)nc3C)cn(C)c2n1 [Compound 72] | – |
| 7.89 | 7.29 | – | – | – | Cc1nc(N)c2c(-c3ccc(NC(=O)[C@H](O)c4cccc(C(F)(F)F)c4)nc3C)cn(C)c2n1 [Compound 73] | – |
| 8.08 | 6.84 | – | – | – | Cc1nc(N)c2c(-c3cnc(NC(=O)[C@H](O)c4cccc(F)c4)cc3C)cn(C)c2n1 [Compound 74] | – |
| 8.17 | 7.02 | – | – | – | Cc1nc(N)c2c(-c3cnc(NC(=O)[C@H](O)c4cccc(C(F)(F)F)c4)cc3C)cn(C)c2n1 [Compound 75] | – |
| 6.19 | < 5.00 | – | – | – | Cc1nc(N)c2c(-c3cnc(NC(=O)[C@H](O)c4cccc(F)c4)nc3C)cn(C)c2n1 [Compound 76] | – |
| – | – | – | – | 8.52 | CC1(COc2ccc3c(c2)ncn3-c2ccc3cccc(N4CCC(N)CC4)c3n2)COC1 [Crenolanib] | 7.10 |
| – | – | – | – | 7.85 | CCc1nc(C(N)=O)c(Nc2ccc(N3CCC(N4CCN(C)CC4)CC3)c(OC)c2)nc1NC1CCOCC1 [Gilteritinib] | 6.32 |
